Measurements taken from patent US9623063B2, “Extracts from Ajuga reptans cell lines, their preparation and use” (I.R.B. ISTITUTO DI RICERCHE BIOTECNOLOGICHE S.r.l., priority 2005, dated 2017).
Values after ≈ are worked out from the molar mass of the structure shown. Like-named read-outs stand apart in the source and are kept apart here.

Columns and labels:
tyrosinase [1] = test: Tyrosinase inhibition, conversion of L-DOPA to DOPAquinone; type: biochemical; details: 100 μg/ml
Source text: (§1) The enzyme tyrosinase catalyses the reactions leading to melanin biosynthesis from tyrosine. […] Substances inhibiting tyrosinase activity produce a clearing/bleaching effect on the skin, since they block melanin synthesis. The method used to determine the inhibition of tyrosinase activity in the oxidation reaction of L-tyrosine to L-DOPA is that described in Kim et al. […] Biol. Pharm. […] The method applied for determination of the inhibition of tyrosinase activity in the conversion of L-DOPA to DOPAquinone is that described in Masamoto et al. (Mushroom tyrosinase inhibitory activity of esculetin isolated from seeds of Euphorbia lathyris L. Biosci. Biotechnol. Biochem., 67(3), 631-634, 2003).

[2] = tested on: Pseudomonas aeruginosa ATCC 9027; test: Multiple dilution assay, growth in culture broth; type: cell-based; details: for T0 (CFU/ml) / T7d (CFU/ml) / T14d (CFU/ml) / T21d (CFU/ml) / T28d (CFU/ml): 30° C.; for T7d (CFU/ml): 7 days; for T14d (CFU/ml): 14 days; for T21d (CFU/ml): 21 days; for T28d (CFU/ml): 28 days
Procedure: (§2) To the purpose of detecting any antimicrobial activity of the Ajuga reptans extract and the individual phenylpropanoid isoteupoloside (FPD) and teupolioside (FPA), an assay has been prepared, generally known as multiple dilution assay, with the following microbial strains: Pseudomonas aeruginosa ATCC 9027; Candida albicans ATCC 2091. The phenylpropanoids FPD, FPA and the Extract 2 of Ajuga reptans were assayed at the concentrations of 0.5 mg/ml, 2 mg/ml and 5 mg/ml. The microbial strains for the test were inoculated in culture broths (in Triptone soy broth medium) containing the substances to be assayed at the concentrations described above. In parallel with these tests, culture broths containing the microbial strain alone have been prepared (controls). The culture-broths have been incubated at 30° C. for a period of 28 days. […] A certain number of serial dilutions have been prepared for each sample in order to determine the microbial load of each culture-broth. Each dilution has been assayed in triplicate on solid medium. Then number of CFUs reported in the table is the mean of the counts performed on the triplicate assays.

[3] = tested on: Candida albicans ATCC 2091; test: Multiple dilution assay, growth in culture broth; type: cell-based; details: for T0 (CFU/ml) / T7d (CFU/ml) / T14d (CFU/ml) / T21d (CFU/ml) / T28d (CFU/ml): 30° C.; for T7d (CFU/ml): 7 days; for T14d (CFU/ml): 14 days; for T21d (CFU/ml): 21 days; for T28d (CFU/ml): 28 days
Procedure: as §2

[4] = Metal chelation, spectrophotometric (Cu2+); type: physicochemical
Source text: The chelating activities of Ajuga reptans extracts in relation to Fe^2+, Fe^3+, Cu^2+ and Ni^2+ metal ions has been determined by means of spectrophotometric measurements using a Shimadzu 1770 UV spectrophotometer. The activities of chelating agents depends on the association constant (equilibrium) of their reactions with the metals according to the following reaction:
[formula] wherein Keq is the equilibrium constant equal to the ratio of concentrations at equilibrium of a complex and a product of equilibrium concentrations of metal ions and a chelator:
The method used for determining chelating activities is well documented in the literature (Korkina L G, Afarras'er I B. Antioxidant and chelating properties of flavonoids. Adv. Pharmacol., 1997, 38:151-63). The results are expressed as Keq (M^−1) calculated for a pure phenylpropanoid. This way the chelating activity against ferrous (Fe II), ferric (Fe III), copper (Cu II) and nickel ions has been calculated.

whole blood = test: Luminol dependent chemiluminescence of whole blood; type: cell-based, human; details: 0.5 h, read-out: Whole blood chemiluminescence (IC50 mg/ml)
Procedure: (§3) Anti-inflammatory activity has been assessed by measuring luminol dependent chemiluminescence generated by free radicals released from whole blood and from white blood cells. The assay has been performed using the following protocol: 10 μl of fresh human blood is mixed with 0.980 ml of Hanks saline solution containing 5×10^−5 M luminol and the test sample (at various concentrations). The chemiluminescent response is recorded continuously for 30 minutes at a temperature of 37° C. The results are expressed as IC50 (mg/ml), i.e. as the minimum sample concentration inhibiting chemiluminescence by 50% with respect to the control. To isolate white blood cells (WBC) from whole blood one proceeds in the following manner: 1 ml of fresh blood is layered onto a Hipaque gradient (p=1.119) and centrifuged at 250×g for 60 minutes at room temperature. Following centrifugation, the pellet containing the white blood cells is washed twice, using a large volume of cold Hanks saline solution. Finally, the washed WBCs are resuspended in 0.1 ml di HBSS containing foetal calf serum. 10^6 WBC are added to a chemiluminometer cuvette. 10 μl of PMA (final concentration equal to 10 nM) are added to induce the formation of free radicals. The chemiluminescent response is recorded continuously for 30 minutes at a temperature of 37° C. […]

tyrosinase [5] = test: Tyrosinase inhibition, oxidation of L-tyrosine to L-DOPA; type: biochemical; details: 250 μg/ml
Source text: as §1

[6] = Fe2+-induced lipid peroxidation (thiobarbituric acid); type: biochemical
Source text: Ajuga reptans Extracts 1 and 2, prepared as described in examples 1 and 2, and isoteupolioside have been used to assess in vitro antioxidant action with specific oxygen radical generating systems such as the superoxide anion (O2^−), the hydroxyl radical (HO^−), the peroxynitrite radical (ONOO^−) and the inhibition of lipid peroxidation. The superoxide anion has been measured by a chemiluminescent assay based on the hypoxanthine (HPX)/xanthine oxidase (XOD) reaction using the Lumimax Superoxide Anion Detection Kit (Stratagene, La Jolla, Calif., USA) and following the manufacturer's instructions. Hydroxyl radical scavenger activity has been measured by means of the Fenton reaction for the production of hydroxyl radicals and chemiluminescent dosage (using a Victor^3 chemiluminometer, Wallac, Finland) with luminol. Peroxynitrite ions have been determined by means of dosage with a spontaneous generator of peroxynitrites (3-morpholinosidnonimine hydrochloride; SIN-1) and a stable reagent for the nitroxyl ions (2-(4-carboxyphenyl)-4,4,5,5-tetramethylimidazoline-1-oxyl-3-oxide potassium salt PTIO spin trap) then dosed by means of electron spin resonance (ESR) using a Nippon Denshi JES-FR30. […]

white blood cells = test: Luminol dependent chemiluminescence of PMA-stimulated white blood cells; type: cell-based; details: Homo sapiens, 0.5 h, read-out: White blood cell chemiluminescence (IC50 mg/ml)
Procedure: as §3

[7] = Hydroxyl radical scavenger activity (Fenton reaction, luminol chemiluminescence); type: biochemical
Source text: Ajuga reptans Extracts 1 and 2, prepared as described in examples 1 and 2, and isoteupolioside have been used to assess in vitro antioxidant action with specific oxygen radical generating systems such as the superoxide anion (O2^−), the hydroxyl radical (HO^−), the peroxynitrite radical (ONOO^−) and the inhibition of lipid peroxidation. The superoxide anion has been measured by a chemiluminescent assay based on the hypoxanthine (HPX)/xanthine oxidase (XOD) reaction using the Lumimax Superoxide Anion Detection Kit (Stratagene, La Jolla, Calif., USA) and following the manufacturer's instructions. Hydroxyl radical scavenger activity has been measured by means of the Fenton reaction for the production of hydroxyl radicals and chemiluminescent dosage (using a Victor^3 chemiluminometer, Wallac, Finland) with luminol. Peroxynitrite ions have been determined by means of dosage with a spontaneous generator of peroxynitrites (3-morpholinosidnonimine hydrochloride; SIN-1) and a stable reagent for the nitroxyl ions (2-(4-carboxyphenyl)-4,4,5,5-tetramethylimidazoline-1-oxyl-3-oxide potassium salt PTIO spin trap) then dosed by means of electron spin resonance (ESR) using a Nippon Denshi JES-FR30. Lipid peroxidation has been generated using Fe^2+ induced-oxygen reactive species, and detected using thiobarbituric acid in accordance with Buege, J A & Aust, S D: Microsomal lipid peroxidation (Methods Enzymol.
The Extract 1 and the Extract 2 set forth in Table 4 are derived from Ajuga reptans cell cultures comprising the phenylpropanoids at 90% and 54%, respectively. The results are expressed as the concentration inhibiting 50% of activity (IC50), means of 6 independent assays.

## CC1OC(OC2C(O)C(COC(=O)C=Cc3ccc(O)c(O)c3)OC(OCCc3ccc(O)c(O)c3)C2O)C(OC2OC(CO)C(O)C(O)C2O)C(O)C1O (stereo not shown) [Isoteupolioside, isoteupolioside]
Tyrosinase [1]
  Test LDOPA-DOPAquinone inhibitory activity (%): 20%
[2]; 0.5 mg/ml
  T0 (CFU/ml): 9.6 × 10^5 CFU/ml
  T7d (CFU/ml): 1.2 × 10^6 CFU/ml
  T14d (CFU/ml): 2.1 × 10^7 CFU/ml
  T21d (CFU/ml): 2.4 × 10^4 CFU/ml
  T28d (CFU/ml): 9.8 × 10^3 CFU/ml
[2]; 2 mg/ml
  T0 (CFU/ml): 5.9 × 10^5 CFU/ml
  T7d (CFU/ml): 1.1 × 10^6 CFU/ml
  T14d (CFU/ml): 1.9 × 10^6 CFU/ml
  T21d (CFU/ml): 9.2 × 10^3 CFU/ml
  T28d (CFU/ml): 9.8 × 10^3 CFU/ml
[2]; 5 mg/ml
  Inhibiting action on the growth of Pseudomonas aeruginosa ATCC 9027, in words: significant inhibiting action
  T0 (CFU/ml): 3.6 × 10^5 CFU/ml
  T7d (CFU/ml): 9.8 × 10^5 CFU/ml
  T14d (CFU/ml): 1.1 × 10^5 CFU/ml
  T21d (CFU/ml): 2.5 × 10^3 CFU/ml
  T28d (CFU/ml): 9 × 10^1 CFU/ml
[3]; 0.5 mg/ml
  T0 (CFU/ml): 9.7 × 10^5 CFU/ml
  T7d (CFU/ml): 1.7 × 10^6 CFU/ml
  T14d (CFU/ml): 5.8 × 10^5 CFU/ml
  T21d (CFU/ml): 7.3 × 10^7 CFU/ml
  T28d (CFU/ml): 6.5 × 10^7 CFU/ml
[3]; 2 mg/ml
  T0 (CFU/ml): 9.1 × 10^5 CFU/ml
  T7d (CFU/ml): 1.1 × 10^6 CFU/ml
  T14d (CFU/ml): 2.3 × 10^6 CFU/ml
  T21d (CFU/ml): 1.2 × 10^5 CFU/ml
  T28d (CFU/ml): 3.8 × 10^3 CFU/ml
[3]; 5 mg/ml
  Inhibiting action on the growth of Candida albicans ATCC 2091, in words: significant inhibiting action
  T0 (CFU/ml): 8.1 × 10^5 CFU/ml
  T7d (CFU/ml): 3.1 × 10^5 CFU/ml
  T14d (CFU/ml): 8.5 × 10^3 CFU/ml
  T21d (CFU/ml): 5 × 10^1 CFU/ml
[4]
  Cu^2+ (Keq, M^−1): 70000 ± 20000 M⁻¹
Whole blood; Homo sapiens
  IC50: 1.3 mg/mL (≈ 1650 µM)
Tyrosinase [5]
  Test L-tyrosine-DOPA inhibitory activity (%): 30.9%
[6]
  Lipid peroxidation (IC50): 9.14 µg/mL
White blood cells
  IC50: 0.4 mg/mL (≈ 508 µM)
[7]
  Hydroxyl radial (IC50): 1.04 µg/mL

## C[C@@H]1O[C@@H](O[C@@H]2[C@@H](O)[C@H](OCCc3ccc(O)c(O)c3)O[C@H](CO)[C@H]2OC(=O)/C=C/c2ccc(O)c(O)c2)[C@H](O[C@@H]2O[C@H](CO)[C@H](O)[C@H](O)[C@H]2O)[C@H](O)[C@H]1O [Teupolioside, teupolioside]
Tyrosinase [1]
  Test LDOPA-DOPAquinone inhibitory activity (%): 21%
[2]
  Anti-microbial activity on Pseudomonas aeruginosa ATCC 9027, comparison in words: activity similar to isoteupolioside
[2]; 5 mg/ml
  Inhibiting action on the growth of Pseudomonas aeruginosa ATCC 9027, in words: significant inhibiting action
[3]
  Anti-microbial activity on Candida albicans ATCC 2091, comparison in words: activity similar to isoteupolioside
[3]; 5 mg/ml
  Inhibiting action on the growth of Candida albicans ATCC 2091, in words: significant inhibiting action
[4]; calculated for a pure phenylpropanoid
  Cu^2+ (Keq, M^−1): 80000 ± 30000 M⁻¹
Whole blood; fresh human blood, luminol, 30 min, 37° C.
  IC50: 1.4 mg/mL (≈ 1780 µM)
Tyrosinase [5]
  Test L-tyrosine-DOPA inhibitory activity (%): 29.6%
[6]; means of 6 independent assays
  Lipid peroxidation (IC50): 9.4 µg/mL
White blood cells; 10^6 WBC, PMA 10 nM, 30 min, 37° C.
  IC50: 0.5 mg/mL (≈ 636 µM)
[7]; means of 6 independent assays
  Hydroxyl radial (IC50): 1.6 µg/mL
